Laboratory results as given in patent publication US10131652B2, “Pyrimidinyloxy benzene derivatives as herbicides” (E. I. DU PONT DE NEMOURS AND COMPANY, priority 2014, dated 2018).

Experiments:
Assay type in all cases: in vivo
[1] = system: morningglory (Ipomoea coccinea); experiment: Test D pre-/postemergence plant response
Excerpt: (§1) Seeds of plant species selected from blackgrass (Alopecurus myosuroides), Italian ryegrass (Lolium multiflorum), winter wheat (Triticum aestivum), galium (catchweed bedstraw, Galium aparine), corn (Zea mays), large (Lg) crabgrass (Digitaria sanguinalis), giant foxtail (Setaria faberii), johnsongrass (Sorghum halepense), lambsquarters (Chenopodium album), morningglory (Ipomoea coccinea), yellow nutsedge (Cyperus esculentus), pigweed (Amaranthus retroflexus), ragweed (common ragweed, Ambrosia elatior), soybean (Glycine max), bamyardgrass (Echinochloa crus-galli), oilseed rape (Brassica napus), waterhemp (common waterhemp, Amaranthus rudis), and velvetleaf (Abutilon theophrasti) were planted into a blend of loam soil and sand and treated preemergence with test chemicals formulated in a non-phytotoxic solvent mixture which included a surfactant. At the same time, plants selected from these crop and weed species and also kochia (Kochia scoparia), wild oat (Avena fatua), and chickweed (common chickweed, Stellaria media) were planted in pots containing Redi-Earth® planting medium (Scotts Company, 14111 Scottslawn Road, Marysville, Ohio 43041) comprising spaghnum peat moss, vermiculite, wetting agent and starter nutrients and treated with postemergence applications of test chemicals formulated in the same manner. Plants ranged in height from 2 to 18 cm (1- to 4-leaf stage) for postemergence treatments. Treated plants and controls were maintained in a greenhouse for 13 to 15 days, after which time all species were compared to controls and visually evaluated. Plant response ratings, summarized in Table D, are based on a scale of 0 to 100 where 0 is no effect and 100 is complete control. A dash (-) response means no test result.

[2] = system: blackgrass (Alopecurus myosuroides); experiment: Test D pre-/postemergence plant response
Excerpt: as §1

[3] = system: pigweed (Amaranthus retroflexus); experiment: Test D pre-/postemergence plant response
Excerpt: as §1

[4] = system: giant foxtail (Setaria faberii); experiment: Test D pre-/postemergence plant response
Excerpt: as §1

[5] = system: johnsongrass (Sorghum halepense); experiment: Test D pre-/postemergence plant response
Excerpt: as §1

[6] = system: large (Lg) crabgrass (Digitaria sanguinalis); experiment: Test D pre-/postemergence plant response
Excerpt: as §1

[7] = system: barnyardgrass (Echinochloa crus-galli); experiment: Test D pre-/postemergence plant response
Excerpt: as §1

[8] = system: waterhemp (common waterhemp, Amaranthus rudis); experiment: Test D pre-/postemergence plant response
Excerpt: as §1

soybean (Glycine max) = experiment: Test D pre-/postemergence plant response
Excerpt: as §1

[9] = system: yellow nutsedge (Cyperus esculentus); experiment: Test D pre-/postemergence plant response; conditions: Preemergence; for Plant response rating, Nutsedge, Yellow: scale 0 to 100 (0 no effect, 100 complete control)
Excerpt: as §1

[10] = system: ragweed (common ragweed, Ambrosia elatior); experiment: Test D pre-/postemergence plant response
Excerpt: as §1

[11] = system: wheat (Triticum aestivum); experiment: Test B pre-/postemergence plant response
How it was run: (§2)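 Visual injury scores on a 0–100 scale (100 = complete control) relative to untreated plants, taken about 10 days post-treatment in greenhouse. Treatments were a directed preemergence soil spray and a postemergence spray at one- to two-leaf stage, using surfactant-containing solvent formulation.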

[12] = system: pigweed (Amaranthus retroflexus); experiment: Test B pre-/postemergence plant response
How it was run: as §2

[13] = system: giant foxtail (Setaria faberii); experiment: Test B pre-/postemergence plant response
How it was run: as §2

corn (Zea mays) = experiment: Test B pre-/postemergence plant response
How it was run: as §2

[14] = system: barnyardgrass (Echinochloa crus-galli); experiment: Test B pre-/postemergence plant response
How it was run: as §2

[15] = Postemergence, 16 g ai/ha, scale 0 to 100 (0 no effect, 100 complete control)
[16] = Postemergence, 31 g ai/ha, scale 0 to 100 (0 no effect, 100 complete control)
[17] = Postemergence, 62 g ai/ha, scale 0 to 100, 0 no effect, 100 complete control
[18] = Postemergence, 125 g ai/ha, scale 0 to 100, 0 no effect, 100 complete control
[19] = Preemergence, 16 g ai/ha, scale 0 to 100 (0 no effect, 100 complete control)
[20] = Preemergence, 31 g ai/ha, scale 0 to 100 (0 no effect, 100 complete control)
[21] = Preemergence, 62 g ai/ha, scale 0 to 100 (0 no effect, 100 complete control)
[22] = 125 g ai/ha, postemergence, 0 to 100 scale, 0 no effect, 100 complete control
[23] = Postemergence, 500 g ai/ha, 0 to 100 scale (0 no effect, 100 complete control)
[24] = Preemergence, 125 g ai/ha, 0 to 100 scale where 0 is no effect and 100 is complete control
[25] = Preemergence, 500 g ai/ha, 0 to 100 scale where 0 is no effect and 100 is complete control

FC(F)(F)c1cc(-c2ccccc2Oc2ncc(Cl)cn2)ncn1 [Compound 54]
Morningglory plant response rating [1, 15]: 5 | Morningglory plant response rating [1, 16]: 75 | Plant response rating, Morningglory [1, 17]: 75 | Plant response rating, Morningglory [1, 18]: 85 | Plant response rating (scale 0 to 100), Morningglory ([1]; Preemergence, 125 g ai/ha): 15 | Plant response rating, Morningglory [1, 19]: 0 | Plant response rating, Morningglory [1, 20]: 0 | Plant response rating, Morningglory [1, 21]: 5 | Blackgrass plant response rating [2, 15]: 0 | Blackgrass plant response rating [2, 16]: 5 | Plant response rating, Blackgrass [2, 17]: 5 | Plant response rating, Blackgrass [2, 18]: 5 | Plant response rating (scale 0 to 100), Blackgrass ([2]; Preemergence, 125 g ai/ha): 70 | Plant response rating, Blackgrass [2, 19]: 5 | Plant response rating, Blackgrass [2, 20]: 5 | Plant response rating, Blackgrass [2, 21]: 40 | Pigweed plant response rating [3, 15]: 60 | Pigweed plant response rating [3, 16]: 80 | Plant response rating, Pigweed [3, 17]: 80 | Plant response rating, Pigweed [3, 18]: 60 | Plant response rating (scale 0 to 100), Pigweed ([3]; Preemergence, 125 g ai/ha): 100 | Plant response rating, Pigweed [3, 19]: 5 | Plant response rating, Pigweed [3, 20]: 100 | Plant response rating, Pigweed [3, 21]: 100 | Foxtail, Giant plant response rating [4, 15]: 0 | Foxtail, Giant plant response rating [4, 16]: 30 | Plant response rating, Foxtail, Giant [4, 17]: 10 | Plant response rating, Foxtail, Giant [4, 18]: 50 | Plant response rating (scale 0 to 100), Foxtail, Giant ([4]; Preemergence, 125 g ai/ha): 95 | Plant response rating, Foxtail, Giant [4, 19]: 0 | Plant response rating, Foxtail, Giant [4, 20]: 10 | Plant response rating, Foxtail, Giant [4, 21]: 95 | Johnsongrass plant response rating [5, 15]: 0 | Johnsongrass plant response rating [5, 16]: 0 | Plant response rating, Johnsongrass [5, 17]: 5 | Plant response rating, Johnsongrass [5, 18]: 5 | Plant response rating (scale 0 to 100), Johnsongrass ([5]; Preemergence, 125 g ai/ha): 40 | Plant response rating, Johnsongrass [5, 19]: 0 | Plant response rating, Johnsongrass [5, 20]: 0 | Plant response rating, Johnsongrass [5, 21]: 10 | Crabgrass, Large plant response rating [6, 15]: 5 | Crabgrass, Large plant response rating [6, 16]: 5 | Plant response rating, Crabgrass, Large [6, 17]: 5 | Plant response rating, Crabgrass, Large [6, 18]: 5 | Plant response rating (scale 0 to 100), Crabgrass, Large ([6]; Preemergence, 125 g ai/ha): 100 | Plant response rating, Crabgrass, Large [6, 19]: 10 | Plant response rating, Crabgrass, Large [6, 20]: 75 | Plant response rating, Crabgrass, Large [6, 21]: 90 | Barnyardgrass plant response rating [7, 15]: 0 | Barnyardgrass plant response rating [7, 16]: 5 | Plant response rating, Barnyardgrass [7, 17]: 5 | Plant response rating, Barnyardgrass [7, 18]: 10 | Plant response rating (scale 0 to 100), Barnyardgrass ([7]; Preemergence, 62 g ai/ha): 10 | Plant response rating (scale 0 to 100), Barnyardgrass ([7]; Preemergence, 125 g ai/ha): 95 | Plant response rating, Barnyardgrass [7, 19]: 0 | Plant response rating, Barnyardgrass [7, 20]: 5 | Waterhemp plant response rating [8, 15]: 45 | Waterhemp plant response rating [8, 16]: 60 | Plant response rating, Waterhemp [8, 17]: 80 | Plant response rating, Waterhemp [8, 18]: 75 | Plant response rating (scale 0 to 100), Waterhemp ([8]; Preemergence, 125 g ai/ha): 100 | Plant response rating, Waterhemp [8, 19]: 25 | Plant response rating, Waterhemp [8, 20]: 85 | Plant response rating, Waterhemp [8, 21]: 100 | Soybean plant response rating (soybean (Glycine max); [15]): 15 | Soybean plant response rating (soybean (Glycine max); [16]): 10 | Plant response rating, Soybean (soybean (Glycine max); [17]): 50 | Plant response rating, Soybean (soybean (Glycine max); [18]): 80 | Plant response rating (scale 0 to 100), Soybean (soybean (Glycine max); Preemergence, 125 g ai/ha): 20 | Plant response rating, Soybean (soybean (Glycine max); [19]): 0 | Plant response rating, Soybean (soybean (Glycine max); [20]): 10 | Plant response rating, Soybean (soybean (Glycine max); [21]): 20 | Plant response rating (scale 0 to 100), Nutsedge, Yellow ([9]; 125 g ai/ha): 15 | Plant response rating, Nutsedge, Yellow ([9]; 16 g ai/ha): 0 | Plant response rating, Nutsedge, Yellow ([9]; 31 g ai/ha): 0 | Plant response rating, Nutsedge, Yellow ([9]; 62 g ai/ha): 0 | Ragweed plant response rating [10, 15]: 0 | Ragweed plant response rating [10, 16]: 0 | Plant response rating, Ragweed [10, 17]: 5 | Plant response rating, Ragweed [10, 18]: 35 | Plant response rating (scale 0 to 100), Ragweed ([10]; Preemergence, 125 g ai/ha): 35 | Plant response rating, Ragweed [10, 19]: 10 | Plant response rating, Ragweed [10, 20]: 40 | Plant response rating, Ragweed [10, 21]: 10 | Plant response rating, Wheat [11, 22]: 0 | Plant response rating, Wheat [11, 23]: 0 | Plant response rating, Pigweed [12, 22]: 100 | Plant response rating, Pigweed [12, 23]: 100 | Plant response rating, Pigweed [12, 24]: 100 | Plant response rating, Pigweed [12, 25]: 100 | Plant response rating, Foxtail, Giant [13, 22]: 80 | Plant response rating, Foxtail, Giant [13, 23]: 100 | Plant response rating, Foxtail, Giant [13, 24]: 100 | Plant response rating, Foxtail, Giant [13, 25]: 100 | Plant response rating, Corn (corn (Zea mays); [22]): 0 | Plant response rating, Corn (corn (Zea mays); [23]): 0 | Plant response rating, Barnyardgrass [14, 22]: 20 | Plant response rating, Barnyardgrass [14, 23]: 100 | Plant response rating, Barnyardgrass [14, 24]: 60 | Plant response rating, Barnyardgrass [14, 25]: 100
